Here are results for one compound from patent US20030143548A1, “Predicting patient responsiveness to serotonergic therapy” (priority 2002, published 2003).

SMILES strings stand for the structures.

The subject of data set [1] is patients with diarrhea-predominant IBS. The settings on record: cited from earlier work.
Data set [2] shares this test system. Put plainly: Scintigraphic measurement of colonic transit (colonic geometric center at 24 hours) at baseline and after 6 weeks of alosetron. Format: in vivo, human. The settings on record: for change in colonic geometric center (ΔGC) at 24 hr: 6 weeks vs baseline, negative = slower transit. From the text:
Colonic transit can be monitored by known methods (Camilleri M. and Zinsmeister A. R., Gastroenterology 103:36-42 (1992); and Camilleri M. et al., Dig. Dis. Sci. 36:609-615 (1991)). In general, labeled (e.g., ^111In) pellets can be delivered to the colon by means of a methacrylate-coated, delayed-release capsule. Simultaneously, labeled (e.g., ^99mTc) pellets can be ingested in a scrambled egg, toast, and milk meal to facilitate measurement of gastric and small bowel transit. A large field gamma camera (e.g., GE 500, General Electric, Milwaukee, Wis.) with a medium energy parallel hole collimator can be used to obtain images. Typically, images are obtained with subjects in the erect position. A variable region of interest (ROI) program can be used to measure colonic transit, with abdominal images obtained at periodic intervals (e.g.,4, 6, 8, 24, 32, and 48 hours pre- or post-treatment. The amount of label can be determined from the abdominal images in four colonic regions: the ascending, transverse, descending, and combined sigmoid and rectum regions. These counts may be corrected for isotope decay and tissue attenuation, as described in Camilleri et al. (1991) and Camilleri and Zinsmeister (1992), referenced above. The colonic geometric center is the weighted average of counts in the four different colonic regions [ascending (AC), transverse (TC), descending (DC), rectosigmoid (RS) and stool]:
(% AC×1+% TC×2+% DC×3+% RS×4+% stool×5)/100=geometric center
A high geometric center implies faster colonic transit, while a reduction of geometric center with treatment implies a retardation of colonic transit.
Thirty patients with diarrhea-predominant IBS associated were studied. Gastrointestinal and colonic transit were performed during a baseline period and during the last week of a 6-week therapeutic trial with alosetron 1 mg twice daily (b.i.d.). Demographic data of the original 30 participants are as follows: mean age 43.2±3y (females 46±4y, males 40±4y); mean duration of IBS 11.2±2.0y (females 9.2±2.3y and males 13.1±3.2y). Twenty-three of the 30 patients agreed to participate in an evaluation of the influence of the genotype of the promoter region of the 5-HTTP gene. The demographics, gender, and duration of illness in the three groups of patients according to 5-HTTP genotype are shown in the table below.
An established scintigraphic method was used as referenced above. Briefly, ^111In pellets were delivered to the colon by means of a methacrylate-coated, delayed-release capsule. Simultaneously, ^99mTc pellets were ingested in a scrambled egg, toast, and milk meal (218 kcal) to facilitate measurement of gastric and small bowel transit. Subjects ingested standardized meals for lunch and dinner. A variable region of interest (ROI) program was used to measure colonic transit. Abdominal images at 4, 6, 8, 24, 32, and 48 hours were obtained using a large field of view gamma camera (GE 500, General Electric, Milwaukee, Wis.) with a medium energy parallel hole collimator. All images were obtained with the subjects in the erect position. Radioscintigraphic markers were placed for reference on the anterior ends of the iliac crests. Anterior and posterior images were obtained with the camera positioned over the abdomen. This facilitated subsequent correction of radioisotopic counts for tissue attenuation.
The counts in four colonic regions were determined: the ascending, transverse, descending, and combined sigmoid and rectum regions. These counts were corrected for isotope decay and tissue attenuation, as referenced above. The primary endpoint of investigation was the colonic geometric center at 24 hours. The colonic geometric center is the weighted average of counts in the four different colonic regions [ascending (AC), transverse (TC), descending (DC), rectosigmoid (RS) and stool]:
Thus, a high geometric center implies faster colonic transit, while a reduction of geometric center with treatment implies a retardation of colonic transit. […]

The conditions of data set [3]: by gender; cited from earlier work.
[4] abbreviates: females, alosetron 1 mg b.i.d., 6 weeks.
Setting [5] is: males, alosetron 1 mg b.i.d., 6 weeks.

Regarding `Cc1[nH]cnc1CN1CCc2c(c3ccccc3n2C)C1=O` [alosetron], the “adequate relief of IBS pain and discomfort and normalization of bowel function” value in data set [1] (clinical trials, women with diarrhea-predominant IBS) was “beneficial effect”. Also, the “effect on colonic transit in patients with diarrhea-predominant IBS” value in data set [1] (greater effect in females than males) is “significantly prolonged”. In addition, the “number of females in whom there was no effect on colonic transit” value in data set [2] (setting [4]) came to 2. Further, the “number of patients with retardation of colonic transit greater than the clinically significant threshold of 1.14 colonic regions” value is given as “Nine” in data set [2] (setting [4]) and 3 in data set [2] (setting [5]). Also, the “change in colonic geometric center (ΔGC) at 24 hr” value in data set [2] (females, alosetron 1 mg b.i.d., p=0.005 vs males) was −1.45±0.25 geometric center units; in data set [2] (males, alosetron 1 mg b.i.d.), −0.32±0.27 geometric center units. Further, the “colonic transit response by 5-HTTP promoter genotype (change of 1.14 units in ΔGC24h, FIG. 2)” value in data set [2] (genotype groups after treatment with alosetron) is on record as “a greater response was observed in those with the long polymorphism”. The “proportion of high responders (slowing of colonic transit by more than 1.14 regions)” value in data set [2] (heterozygous 5-HTTP promoter genotype group) is reported as 2 of 11; in data set [2] (long variant homozygous 5-HTTP promoter genotype group, Fisher's exact test p=0.024 vs heterozygous), 6 of 8. Further, in data set [2] (long/long homozygous vs long/short heterozygous patients, p=0.039), the “colonic transit response by 5-HTTP promoter genotype” value is “significantly higher response in long variant/long variant homozygous”. The “males with retardation of colonic transit at 24 hours equal to or greater than the mean change in females (1.45 geometric center units)” value in data set [2] (setting [5]) was 2 of 15. Besides, the “colonic geometric centers at 24 hours following treatment compared to baseline” value in data set [2] (patients with IBS, alosetron 1 mg b.i.d., last week of 6-week trial, lower = slower colonic transit) is “significantly lower”. Further, in data set [3], the “systemic exposure, females compared to males” value is on record as “slightly greater systemic exposure”.
